Target: T1, GST-RIPK1 (recombinant GST-RIPK1 kinase domain (residues 1-327)) (Homo sapiens, UniProt Q13546)
T1 construct: recombinant GST-RIPK1 kinase domain (residues 1-327) enzyme produced from baculovirus-transfected Sf21 cells; host or cells: baculovirus-transfected Sf21 insect cells
T1 sequence (Q13546 1-327): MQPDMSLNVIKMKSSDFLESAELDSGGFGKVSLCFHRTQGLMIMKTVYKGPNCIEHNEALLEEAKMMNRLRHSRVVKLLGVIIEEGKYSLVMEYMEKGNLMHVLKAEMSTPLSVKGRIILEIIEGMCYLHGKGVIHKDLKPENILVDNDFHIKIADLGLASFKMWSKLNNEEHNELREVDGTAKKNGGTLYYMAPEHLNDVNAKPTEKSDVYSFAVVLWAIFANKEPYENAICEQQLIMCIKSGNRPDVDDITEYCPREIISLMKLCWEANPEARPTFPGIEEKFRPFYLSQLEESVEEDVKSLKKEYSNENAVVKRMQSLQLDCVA
Experiment: RIPK1-ADP-Glo Enzymatic Assay
Assay type: biochemical
Conditions: ten-point titration, top compound concentration of 100000 nM; 25 nM GST-RIPK1, 300 μM ATP, 3 μM dephosphorylated-MBP; 30 min pre-incubation, 150 min reaction
Outline: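 GST-RIPK1 kinase domain (residues 1-327, Sf21-expressed), 25 nM, preincubated 30 min with compound, then reacted 150 min with 300 μM ATP and 3 μM dephosphorylated MBP in pH 7.3 Hepes buffer, 1% DMSO. ADP measured by ADP-Glo luminescence; EC50 from ten-point titration (top 100000 nM), four-parameter fit.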

| Compound | EC50 [µM] |
| --- | --- |
| O=C1N2[C@@H](CC[C@H]2c2cc(F)cc(F)c2)O[C@]12C[C@H](Oc1ncnc3sccc13)C2 [Example 9.30, (1r,3R,5′S,7a′R)-5′-(3,5-difluorophenyl)-3-[(thieno[2,3-d]pyrimidin-4-yl)oxy]tetrahydro-3′H-spiro[cyclobutane-1,2′-pyrrolo[2,1-b][1,3]oxazol]-3′-one] | 0.009 |
| O=C1N2[C@@H](CC[C@H]2c2cnccn2)OC12CC(Oc1cc(F)ccc1F)C2 (stereo partly drawn) [Example 12.6, (5′S,7a′R)-3-(2,5-difluorophenoxy)-5′-(pyrazin-2-yl)tetrahydro-3′H-spiro[cyclobutane-1,2′-pyrrolo[2,1-b][1,3]oxazol]-3′-one] | 0.016 |
| O=C1N2C(CC[C@H]2c2cnccn2)OC12CC(OCc1cnc3nncn3c1)C2 (stereo partly drawn) [Example 18.2, (5′S)-5′-(pyrazin-2-yl)-3-[([1,2,4]triazolo[4,3-a]pyrimidin-6-yl)methoxy]tetrahydro-3′H-spiro[cyclobutane-1,2′-pyrrolo[2,1-b][1,3]oxazol]-3′-one] | 0.066 |
| N#Cc1ccoc1COC1CC2(C1)OC1CC[C@@H](c3cnccn3)N1C2=O (stereo partly drawn) [Example 18.55, 2-({[(5′S)-3′-oxo-5′-(pyrazin-2-yl)tetrahydro-3′H-spiro[cyclobutane-1,2′-pyrrolo[2,1-b][1,3]oxazol]-3-yl]oxy}methyl)furan-3-carbonitrile] | 0.126 |
| O=C1N2C(CC[C@H]2c2cnccn2)OC12CC(OCc1ccc3cnccc3c1)C2 (stereo partly drawn) [Example 18.85, (5′S)-3-[(isoquinolin-6-yl)methoxy]-5′-(pyrazin-2-yl)tetrahydro-3′H-spiro[cyclobutane-1,2′-pyrrolo[2,1-b][1,3]oxazol]-3′-one] | 0.079 |
| COc1ccc(COC2CC3(C2)OC2CC[C@@H](c4cnccn4)N2C3=O)cc1CC#N (stereo partly drawn) [Example 18.86, [2-methoxy-5-({[(5′S)-3′-oxo-5′-(pyrazin-2-yl)tetrahydro-3′H-spiro[cyclobutane-1,2′-pyrrolo[2,1-b][1,3]oxazol]-3-yl]oxy}methyl)phenyl]acetonitrile] | 0.094 |
| 4-{[(1r,3R,5′S,7a′R)-3′-oxo-5′- phenyltetrahydro-3′H- spiro[cyclobutane-1,2′-pyrrolo[2,1- b][1,3]oxazol]-3-yl]oxy}pyrimidine- 2-carbonitrile [Example 9.18] | 0.054 |
| O=C1N2[C@@H](CC[C@H]2c2cc(F)cc(F)c2)O[C@]12C[C@H](Oc1cccn3nnnc13)C2 [Example 9.25, (1r,3R,5′S,7a′R)-5′-(3,5-difluorophenyl)-3-[(tetrazolo[1,5-a]pyridin-8-yl)oxy]tetrahydro-3′H-spiro[cyclobutane-1,2′-pyrrolo[2,1-b][1,3]oxazol]-3′-one] | 0.21 |
| N#CCc1cccc(COC2CC3(C2)OC2CC[C@@H](c4cnccn4)N2C3=O)c1 (stereo partly drawn) [Example 18.62, [3-({[(5′S)-3′-oxo-5′-(pyrazin-2 yl)tetrahydro-3′H-spiro[cyclobutane-1,2′-pyrrolo[2,1-b][1,3]oxazol]-3-yl]oxy}methyl)phenyl]acetonitrile] | 0.047 |
| O=C1N2[C@@H](CC[C@H]2c2cc(F)cc(F)c2)O[C@]12C[C@H](Oc1cc(-n3cc(C(F)F)cn3)ncn1)C2 [Example 9.56, (5′S,7a′R)-3-((6-(4-(difluoromethyl)-1H-pyrazol-1-yl)pyrimidin-4-yl)oxy)-5′-(3,5-difluorophenyl)tetrahydro-3′H-spiro[cyclobutane-1,2′-pyrrolo[2,1-b]oxazol]-3′-one] | 0.018 |
| O=C1N2C(CC[C@H]2c2cnccn2)OC12CC(OCc1ccnc3ccnn13)C2 (stereo partly drawn) [Example 18.31, (5′S)-5′-(pyrazin-2-yl)-3-[(pyrazolo[1,5-a]pyrimidin-7-yl)methoxy]tetrahydro-3′H-spiro[cyclobutane-1,2′-pyrrolo[2,1-b][1,3]oxazol]-3′-one] | 0.428 |
| O=C1N2[C@@H](CC[C@H]2c2cc(F)cc(F)c2)OC12CC(Oc1ccnc3c(F)cnn13)C2 (single isomer, unassigned) [Example 9.5] | 0.328 |
| CCOc1ncc(COC2CC3(C2)OC2CC[C@@H](c4cnccn4)N2C3=O)cn1 (stereo partly drawn) [Example 18.8, (5′S)-3-[(2-ethoxypyrimidin-5-yl)methoxy]-5′-(pyrazin-2-yl)tetrahydro-3′H-spiro[cyclobutane-1,2′-pyrrolo[2,1-b][1,3]oxazol]-3′-one] | 0.466 |
| O=C1N2[C@@H](CC[C@H]2c2cnccn2)O[C@]12C[C@@H](OCc1ccc3oncc3c1)C2 [Example 18.59, (5′S)-3-[(1,2-benzoxazol-5-yl)methoxy]-5′-(pyrazin-2-yl)tetrahydro-3′H-spiro[cyclobutane-1,2′-pyrrolo[2,1-b][1,3]oxazol]-3′-one] | 0.012 |
| COc1cc(OC2CC3(C2)O[C@@H]2CC[C@@H](c4ccccc4)N2C3=O)ccc1F (stereo partly drawn) [Example 8.18, (5′S,7a′R)-3-(4-fluoro-3-methoxyphenoxy)-5′-phenyltetrahydro-3′H-spiro[cyclobutane-1,2′-pyrrolo[2,1-b][1,3]oxazol]-3′-one] | 0.021 |
| O=C1N2[C@@H](CC[C@H]2c2cnccn2)OC12CC(OCc1ccnc3nncn13)C2 (stereo partly drawn) [Example 20.4, (5′S,7a′R)-5′-(pyrazin-2-yl)-3-[([1,2,4]triazolo[4,3-a]pyrimidin-5-yl)methoxy]tetrahydro-3′H-spiro[cyclobutane-1,2′-pyrrolo[2,1-b][1,3]oxazol]-3′-one] | 0.179 |
| N#CC1(c2ccc(COC3CC4(C3)OC3CC[C@@H](c5cnccn5)N3C4=O)c(Cl)c2)CC1 (stereo partly drawn) [Example 18.79, 1-[3-chloro-4-({[(5′S)-3′-oxo-5′-(pyrazin-2-yl)tetrahydro-3′H-spiro[cyclobutane-1,2′-pyrrolo[2,1-b][1,3]oxazol]-3-yl]oxy}methyl)phenyl]cyclopropane-1-carbonitrile] | 0.02 |
| Cc1cc2c(O[C@H]3C[C@@]4(C3)O[C@@H]3CC[C@@H](c5cc(F)cc(F)c5)N3C4=O)ncnc2o1 [Example 9.32, (1r,3R,5′S,7a′R)-5′-(3,5-difluorophenyl)-3-[(6-methylfuro[2,3-d]pyrimidin-4-yl)oxy]tetrahydro-3′H-spiro[cyclobutane-1,2′-pyrrolo[2,1-b][1,3]oxazol]-3′-one] | 0.008 |
| O=C1N2[C@@H](CC[C@H]2c2cc(F)cc(F)c2)O[C@]12C[C@@H](Oc1cc(Cl)ncn1)C2 [Example 9.13, (1s,3S,5′S,7a′R)-3-((6-chloropyrimidin-4-yl)oxy)-5′-(3,5-difluorophenyl)tetrahydro-3′H-spiro[cyclobutane-1,2′-pyrrolo[2,1-b]oxazol]-3′-one] | 0.108 |
| CC(OC1CC2(C1)OC1CCC(c3cc(F)cc(F)c3)N1C2=O)c1ccccc1 (single isomer, unassigned) [Example 15.3, ((1S or R),3R,5′S,7a′R)-5′-(3,5-difluorophenyl)-3-((R or S)-1-phenylethoxy)tetrahydro-3′H-spiro[cyclobutane-1,2′-pyrrolo[2,1-b]oxazol]-3′-one] | 0.026 |
| Cn1ccc([C@@H]2CC[C@H]3OC4(CC(Oc5cncc(Cl)c5)C4)C(=O)N32)n1 (stereo partly drawn) [Example 19.9, (5′S,7a′R)-3-[(5-chloropyridin-3-yl)oxy]-5′-(1-methyl-1H-pyrazol-3-yl)tetrahydro-3′H-spiro[cyclobutane-1,2′-pyrrolo[2,1-b][1,3]oxazol]-3′-one] | 0.397 |
| O=C1N2[C@@H](CC[C@H]2c2cnccn2)O[C@]12C[C@H](Oc1ncnn3cccc13)C2 [Example 9.46, (1r,3R,5′S,7a′R)-5′-(pyrazin-2-yl)-3-(pyrrolo[2,1-f][1,2,4]triazin-4-yloxy)tetrahydro-3′H-spiro[cyclobutane-1,2′-pyrrolo[2,1-b]oxazol]-3′-one] | 0.015 |
| O=C1N2[C@@H](CC[C@H]2c2cnccn2)O[C@]12C[C@@H](OCc1ccc3scnc3c1)C2 [Example 18.23, (1s,3S,5′S,7a′R)-3-[(1,3-benzothiazol-5-yl)methoxy]-5′-(pyrazin-2-yl)tetrahydro-3′H-spiro[cyclobutane-1,2′-pyrrolo [2,1-b][1,3]oxazol]-3′-one] | 0.027 |
| Cc1cc(Cl)cnc1COC1CC2(C1)O[C@@H]1CC[C@@H](c3cnccn3)N1C2=O (stereo partly drawn) [Example 22.3, (5′S,7a′R)-3-((5-chloro-3-methylpyridin-2-yl)methoxy)-5′-(pyrazin-2-yl)tetrahydro-3′H-spiro[cyclobutane-1,2′-pyrrolo[2,1-b]oxazol]-3′-one] | 0.033 |
| CC1(Oc2cc(C(N)=O)ncn2)CC2(C1)O[C@@H]1CC[C@@H](c3cc(F)cc(F)c3)N1C2=O (stereo partly drawn) [Example 5.2, 6-(((5′S,7a′R)-5′-(3,5-difluorophenyl)-3-methyl-3′-oxotetrahydro-3′H-spiro[cyclobutane-1,2′-pyrrolo[2,1-b]oxazol]-3-yl)oxy)pyrimidine-4-carboxamide] | 0.121 |
| CCC(C)Oc1cccc(COC2CC3(C2)O[C@@H]2CC[C@@H](c4cnccn4)N2C3=O)n1 (stereo partly drawn) [Example 18.66, (5′S,7a′R)-3-({6-[(butan-2-yl)oxy]pyridin-2-yl}methoxy)-5′-(pyrazin-2-yl)tetrahydro-3′H-spiro[cyclobutane-1,2′-pyrrolo[2,1-b][1,3]oxazol]-3′-one] | 0.141 |

From patent US20250154173A1 (Merck Sharp & Dohme LLC, priority 2023, published 2025)
